Three compounds from PubChem BioAssay AID1435 (PCMD, 2008) can be followed below.

The target in this assay is DNA repair protein RAD51 homolog 1 (Homo sapiens) (UniProt Q06609). Nature of the assay: concentration-dependent blocking of RAD51 activity – biochemical, homologous recombination, fluorescence, dose response (AID 1435). Conditions: RAD51 homologous recombination biochemical assay.

Calls of active or inactive are those of the source. The rule behind the calls is not given here.

Chain of DNA repair protein RAD51 homolog 1 (Homo sapiens) (Q06609 whole entry, looked up): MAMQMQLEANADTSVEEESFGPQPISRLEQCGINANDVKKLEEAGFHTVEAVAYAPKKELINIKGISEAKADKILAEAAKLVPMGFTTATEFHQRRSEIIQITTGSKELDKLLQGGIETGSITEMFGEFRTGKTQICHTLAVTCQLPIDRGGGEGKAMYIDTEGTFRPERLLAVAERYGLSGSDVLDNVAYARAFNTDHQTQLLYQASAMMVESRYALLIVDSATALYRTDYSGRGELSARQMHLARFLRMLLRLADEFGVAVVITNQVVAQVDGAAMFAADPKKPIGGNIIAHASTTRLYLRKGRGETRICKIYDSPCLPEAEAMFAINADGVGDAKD

As for `COC(=O)/C(=C\Nc1cccc(Cl)c1C)c1ncc(C(F)(F)F)cc1Cl`, the IC50 is > 85 µM (inactive).
Next, `CCCCCOCC1CC(C/C(C)=N/Nc2nc(-c3ccccc3)cs2)C(=O)O1` (stereo not drawn): > 85 µM (inactive).
Turning to `COc1cccc2c1C(=O)c1c(O)c3c(c(O)c1C2=O)C[C@@](O)(C(=O)CO)C[C@@H]3O[C@H]1C[C@H](N)[C@@H](O)[C@H](C)O1`, the IC50 is 1.4 µM.
